Converted amounts (≈) assume the structure as drawn.
How the values were obtained:
L1210 cells = assay: Growth inhibition of cultured L1210 cells; conditions: Mus musculus, L1210, read-out: % Inhibition, Growth (on Day 2)
[1] = test system: Ps. fluoroescens NIHJB-254; assay: Minimum inhibitory concentration, broth dilution method
Sar. lutea ATCC 9341 = assay: as above; conditions: Micrococcus luteus, ATCC9341
Bac. cereus ATCC 9634 = assay: as above; conditions: Bacillus cereus, ATCC9634
Mic. flavus = assay: as above; conditions: Micrococcus flavus
[2] = test system: solid and ascitic-type mammalian malignant tumors; assay: Inhibitory action against solid and ascitic-type mammalian malignant tumors; assay type: in vivo, mammals
Staph. aureus Smith = assay: Minimum inhibitory concentration, broth dilution method; conditions: Staphylococcus aureus
P388 leukemia = assay: Inhibition of growth of P388 leukemia in mice; assay type: in vivo
[3] = test system: Mycobact. smegmatis ATCC 607; assay: Minimum inhibitory concentration, broth dilution method
Corv. bovis 1810 = assay: as above
Bac. subtilis ATCC 6633 = assay: as above; conditions: Bacillus subtilis, ATCC6633
Staph. aureus FDA 209P = assay: as above; conditions: Staphylococcus aureus, FDA209P
[4] = test system: Bac. megaterium NRRL B-938; assay: as above; conditions: Priestia megaterium, NRRLB938
Can. tropicalis IAM 4942 = assay: as above; conditions: Candida tropicalis, IAM4942
Pr. morganii = assay: as above; conditions: Morganella morganii
[5] = Acute toxicity, single intraperitoneal injection; conditions: mouse, in vivo, ip; single i.p. injection, dd mice; read-out: LD50, intraperitoneal administration
Can. albicans IAM 4905 = assay: Minimum inhibitory concentration, broth dilution method; conditions: Candida albicans, IAM4905
[6] = solid and ascitic-type mammalian tumors, in words
[7] = P388 leukemia in mice, in words

SMILES	inhibition at 0.1 µg/mL (L1210 cells) [%]	MIC [1] [µg/mL]	MIC (Sar. lutea ATCC 9341) [µg/mL]	MIC (Bac. cereus ATCC 9634) [µg/mL]	MIC (Mic. flavus) [µg/mL]	inhibitory action against malignant tumors ([2]; in vivo)	MIC (Staph. aureus Smith) [µg/mL]	inhibiting the growth of P388 leukemia (P388 leukemia; mouse, in vivo)	MIC [3] [µg/mL]	MIC (Corv. bovis 1810) [µg/mL]	MIC (Bac. subtilis ATCC 6633) [µg/mL]	MIC (Staph. aureus FDA 209P) [µg/mL]	MIC [4] [µg/mL]	MIC (Can. tropicalis IAM 4942) [µg/mL]	MIC (Pr. morganii) [µg/mL]	LD50 [5] [mg/kg]	MIC (Can. albicans IAM 4905) [µg/mL]	inhibitory action against malignant tumors [2, 6]	inhibiting the growth of P388 leukemia (P388 leukemia; [7])
CC[C@@]1(O)C[C@H](O[C@H]2C[C@H](N(C)C)[C@H](O[C@H]3C[C@H](O)[C@H](O[C@H]4CCC(=O)[C@H](C)O4)[C@H](C)O3)[C@H](C)O2)c2c(cc3c(c2O)C(=O)c2c(O)cccc2C3=O)[C@H]1C(=O)OC [Aclacinomycin, reference compound]	89.7																		
CC[C@@]1(O)C[C@H](O[C@H]2C[C@H](N(C)C)[C@H](O[C@H]3C[C@H](O)[C@H](OC4CCC(=O)C(C)O4)[C@H](C)O3)[C@H](C)O2)c2c(cc3c(c2O)C(=O)c2c(O)cccc2C3=O)[C@H]1C(=O)OC (stereo partly drawn) [D-cinerulosyl-2-deoxy-L-fucosyl-L-rhodosaminyl-alkavinone]	80.7	100 (≈ 123 µM)	0.78 (≈ 0.961 µM)	1.56 (≈ 1.92 µM)	0.2 (≈ 0.246 µM)	marked inhibitory action	1.56 (≈ 1.92 µM)	effective in inhibiting the growth of malignant tumors	3.12 (≈ 3.84 µM)	1.56 (≈ 1.92 µM)	3.12 (≈ 3.84 µM)	6.25 (≈ 7.7 µM)	6.25 (≈ 7.7 µM)	100 (≈ 123 µM)	> 100	28.5	100 (≈ 123 µM)		
CC[C@@]1(O)C[C@H](O[C@H]2C[C@H](N(C)C)[C@H](O[C@H]3C[C@H](O)[C@H](OC4CCC(=O)C(C)O4)[C@H](C)O3)[C@H](C)O2)c2c(cc3c(c2O)C(=O)c2c(O)ccc(O)c2C3=O)[C@H]1C(=O)OC (stereo partly drawn) [D-cinerulosyl-2-deoxy-L-fucosyl-L-rhodosaminyl-ε-pyrromycinone]	82.1	100 (≈ 121 µM)	0.78 (≈ 0.942 µM)	0.78 (≈ 0.942 µM)	0.2 (≈ 0.242 µM)	marked inhibitory action	1.56 (≈ 1.88 µM)	effective in inhibiting the growth of malignant tumors	3.12 (≈ 3.77 µM)	0.78 (≈ 0.942 µM)	1.56 (≈ 1.88 µM)	3.12 (≈ 3.77 µM)	6.25 (≈ 7.55 µM)	> 100	> 100	17	> 100		
CC[C@@]1(O)C[C@H](O[C@H]2C[C@H](NC)[C@H](O[C@H]3C[C@H](O)[C@H](O[C@H]4CCC(=O)[C@H](C)O4)[C@H](C)O3)[C@H](C)O2)c2c(cc3c(c2O)C(=O)c2c(O)cccc2C3=O)[C@H]1C(=O)OC [MA 144-L]	27.4	100 (≈ 125 µM)	0.78 (≈ 0.978 µM)	1.56 (≈ 1.96 µM)	0.2 (≈ 0.251 µM)		1.56 (≈ 1.96 µM)		3.1 (≈ 3.89 µM)	1.56 (≈ 1.96 µM)	3.1 (≈ 3.89 µM)	6.25 (≈ 7.83 µM)	6.25 (≈ 7.83 µM)	100 (≈ 125 µM)	> 100	45.5	100 (≈ 125 µM)	marked inhibitory action	effective in inhibiting the growth of malignant tumors
CC[C@@]1(O)C[C@H](O[C@H]2C[C@H](N(C)C)[C@H](O[C@H]3C[C@H](O)[C@H](O[C@H]4CC[C@H](O)[C@H](C)O4)[C@H](C)O3)[C@H](C)O2)c2c(cc3c(c2O)C(=O)c2c(O)cccc2C3=O)[C@H]1C(=O)OC [MA 144-N1]	79.2	> 100	0.78 (≈ 0.958 µM)	0.78 (≈ 0.958 µM)	0.4 (≈ 0.491 µM)		0.78 (≈ 0.958 µM)		> 100	0.78 (≈ 0.958 µM)	3.1 (≈ 3.81 µM)	6.25 (≈ 7.68 µM)	3.1 (≈ 3.81 µM)	> 100	> 100	32.5	> 100	marked inhibitory action	effective in inhibiting the growth of malignant tumors
CC[C@@]1(O)C[C@H](O[C@H]2C[C@H](N(C)C)[C@H](O[C@H]3C[C@H](O)[C@H](O)[C@H](C)O3)[C@H](C)O2)c2c(cc3c(c2O)C(=O)c2c(O)cccc2C3=O)[C@H]1C(=O)OC [MA 144-S1, 2-deoxy-L-fucosyl-L-rhodosaminyl-aklavinone]	86	> 100	1.56 (≈ 2.23 µM)	1.56 (≈ 2.23 µM)	1.56 (≈ 2.23 µM)		3.1 (≈ 4.43 µM)		> 100	0.78 (≈ 1.11 µM)	3.1 (≈ 4.43 µM)	6.25 (≈ 8.93 µM)	3.1 (≈ 4.43 µM)	> 100	> 100	24.4	> 100	marked inhibitory action	effective in inhibiting the growth of malignant tumors
CC[C@@]1(O)C[C@H](O[C@H]2C[C@H](N(C)C)[C@H](O[C@H]3C[C@H](O)[C@H](O)[C@H](C)O3)[C@H](C)O2)c2c(cc3c(c2O)C(=O)c2c(O)ccc(O)c2C3=O)[C@H]1C(=O)OC [MA 144-S2]	88.1	> 100	1.56 (≈ 2.18 µM)	0.78 (≈ 1.09 µM)	0.78 (≈ 1.09 µM)		0.78 (≈ 1.09 µM)		> 100	0.78 (≈ 1.09 µM)	3.1 (≈ 4.33 µM)	6.25 (≈ 8.73 µM)	3.1 (≈ 4.33 µM)	> 100	> 100	12.5	> 100		effective in inhibiting the growth of malignant tumors
CC[C@@]1(O)C[C@H](O[C@H]2C[C@H](N(C)C)[C@H](O[C@H]3C[C@H](O)[C@H](O[C@H]4C[C@H](O)[C@H](O)[C@H](C)O4)[C@H](C)O3)[C@H](C)O2)c2c(cc3c(c2O)C(=O)c2c(O)cccc2C3=O)[C@H]1C(=O)OC [MA 144-U1]	78.5	> 100	1.56 (≈ 1.88 µM)	1.56 (≈ 1.88 µM)	1.56 (≈ 1.88 µM)		3.1 (≈ 3.74 µM)		> 100	6.25 (≈ 7.53 µM)	3.1 (≈ 3.74 µM)	6.25 (≈ 7.53 µM)	3.1 (≈ 3.74 µM)	> 100	> 100	30.2	> 100	marked inhibitory action	effective in inhibiting the growth of malignant tumors
CC[C@@]1(O)C[C@H](O[C@H]2C[C@H](N(C)C)[C@H](O[C@H]3C[C@H](O)[C@H](O[C@H]4C[C@H](O)[C@H](O)[C@H](C)O4)[C@H](C)O3)[C@H](C)O2)c2c(cc3c(c2O)C(=O)c2c(O)ccc(O)c2C3=O)[C@H]1C(=O)OC [MA 144-U2]	80.5	> 100	1.56 (≈ 1.84 µM)	1.56 (≈ 1.84 µM)	0.78 (≈ 0.922 µM)		0.78 (≈ 0.922 µM)	effective in inhibiting the growth of malignant tumors	> 100	6.25 (≈ 7.39 µM)	3.1 (≈ 3.66 µM)	3.1 (≈ 3.66 µM)	1.56 (≈ 1.84 µM)	> 100	> 100	14.5	> 100		
CC[C@@]1(O)C[C@H](O[C@H]2C[C@H](N(C)C)[C@H](O[C@H]3C[C@H](O)[C@H](O[C@H]4C=CC(=O)[C@H](C)O4)[C@H](C)O3)[C@H](C)O2)c2c(cc3c(c2O)C(=O)c2c(O)cccc2C3=O)[C@H]1C(=O)OC [MA 144-Y]	90.2	> 100	0.2 (≈ 0.247 µM)	0.1 (≈ 0.123 µM)	0.1 (≈ 0.123 µM)		0.2 (≈ 0.247 µM)		3.1 (≈ 3.83 µM)	0.2 (≈ 0.247 µM)	0.2 (≈ 0.247 µM)	0.4 (≈ 0.494 µM)	0.2 (≈ 0.247 µM)	> 100	> 100	40 to 50	> 100	marked inhibitory action	effective in inhibiting the growth of malignant tumors

From patent US4209588A, “Process for producing new antitumor anthracycline antibiotics” (Zaidan Hojin Biseibutsu Kagaku Kenkyu Kai, priority 1976, dated 1980)
